target: T1, RORc ligand binding domain (Homo sapiens, UniProt P51449); assay: In Vitro RORc Ligand Binding Assay (25-[3H]hydroxycholesterol radioligand filtration); conditions: In Vitro RORc Ligand Binding Assay; Table 4; read-out: RORc IC50
T1 construct: host or cells: E. coli
T1 sequence (P51449 269-508 limits assumed): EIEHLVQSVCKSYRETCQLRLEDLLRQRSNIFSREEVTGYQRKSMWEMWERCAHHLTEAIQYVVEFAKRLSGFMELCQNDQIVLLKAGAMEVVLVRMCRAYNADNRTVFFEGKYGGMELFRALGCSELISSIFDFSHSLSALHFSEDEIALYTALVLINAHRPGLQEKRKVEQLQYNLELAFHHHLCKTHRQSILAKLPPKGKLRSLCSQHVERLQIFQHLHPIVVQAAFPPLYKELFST

IC50 [nM] | SMILES
85 | C[C@H]1CCC(c2ccccc2)S(=O)(=O)N1Cc1ccc(N[C@H]2C[C@@H](n3cnnc3)C2)cc1F (stereo partly drawn) [Example 241, [3-Fluoro-4-((3S)-methyl-1,1-dioxo-6-phenyl-[1,2]thiazinan-2-ylmethyl)-phenyl]-(3-[1,2,4]triazol-4-yl-cyclobutyl)-amine]
200 | CC(=O)N1CCN(c2ccc(CN3CC(C)(C)CC(c4ccccc4)S3(=O)=O)c(F)c2)CC1 (single isomer, unassigned) [Example 171, 1-{4-[4-(4,4-Dimethyl-1,1-dioxo-6-phenyl-[1,2]thiazinan-2-ylmethyl)-3-fluoro-phenyl]-piperazin-1-yl}-ethanone]
308 | CC(=O)N1CCN(c2ccc(CN3C4CC(C4)CC(c4ccccc4)S3(=O)=O)c(F)c2)CC1 (single isomer, unassigned) [Example 301, 1-{4-[4-(3,3-Dioxo-4-pheny-3-thia-2-aza-bicyclo[4.1.1]oct-2-ylmethyl)-3-fluoro-phenyl]-piperazin-1-yl}-ethanone]
71 | CC(=O)N1CCN(c2ccc(CN3CCC(C)CC(c4ccccc4)S3(=O)=O)c(F)c2)CC1 (single isomer, unassigned) [Example 332, 1-{4-[3-Fluoro-4-(5-methyl-1,1-dioxo-7-phenyl-[1,2]thiazepan-2-ylmethyl)-phenyl]-piperazin-1-yl}-ethanone]
2480 | C[C@H]1CCC(c2ccccc2)S(=O)(=O)N1Cc1ccc(N2CCC(c3nncn3C)CC2)cc1F (single isomer, unassigned) [Example 137]
5710 | C[C@H]1CCC(c2ccccc2)S(=O)(=O)N1Cc1ccc(C(=O)N2CCS(=O)(=O)CC2)cc1 (stereo partly drawn) [Example 398, (1,1-Dioxo-1-thiomorpholin-4-yl)-[4-((3S)-methyl-1,1-dioxo-6-phenyl-[1,2]thiazinan-2-ylmethyl)-phenyl]-methanone]
4720 | C[C@H]1CCC(c2ccccc2)S(=O)(=O)N1Cc1ccc(C(=O)N2CCOC(C(N)=O)C2)cc1 (stereo partly drawn) [Example 298, 4-[4-((3S)-Methyl-1,1-dioxo-6-phenyl-[1,2]thiazinan-2-ylmethyl)-benzoyl]-morpholine-2-carboxylic acid amide]
32 | CC(=O)N1CCN(c2ccc(CN3[C@@H](C)CCC(c4ccccc4C#N)S3(=O)=O)c(F)c2)CC1 (single isomer, unassigned) [Example 208]
24 | O=c1[nH]nc(C2CCN(c3ccc(CN4CCCCC(c5ccccc5)S4(=O)=O)cc3)CC2)o1 (single isomer, unassigned) [Example 337, 5-{1-[4-(1,1-Dioxo-7-phenyl-[1,2]thiazepan-2-ylmethyl)-phenyl]-piperidin-4-yl}-3H-[1,3,4]oxadiazol-2-one]
1460 | C[C@H]1CCC(c2ccccc2)S(=O)(=O)N1Cc1ccc(N2CCn3cnnc3C2)cc1F (single isomer, unassigned) [Example 149]
1350 | C[C@H]1CCC(c2ccccc2)S(=O)(=O)N1Cc1ccc(C(=O)N2CCc3cn[nH]c3C2)cc1 (stereo partly drawn) [Example 365, [4-((3S)-Methyl-1,1-dioxo-6-phenyl-[1,2]thiazinan-2-ylmethyl)-phenyl]-(1,4,5,7-tetrahydro-pyrazolo[3,4-c]pyridin-6-yl)-methanone]
12 | CC(=O)N1CCN(c2ccc(CN3CC(C)CCC(c4ccccc4)S3(=O)=O)c(F)c2)CC1 (single isomer, unassigned) [Example 338, 1-{4-[3-Fluoro-4-(4-methyl-1,1-dioxo-7-phenyl-[1,2]thiazepan-2-ylmethyl)-phenyl]-piperazin-1-yl}-ethanone]
16 | CC(=O)N1CCN(c2ccc(CN3[C@H](C)CCCC(c4ccccc4)S3(=O)=O)c(F)c2)CC1 (single isomer, unassigned) [Example 321]
26 | CC(=O)N1CCN(c2ccc(CN3CCCCC(c4ccccc4)S3(=O)=O)c(F)c2)[C@@H](C)C1 (single isomer, unassigned) [Example 341, 1-{4-[4-(1,1-Dioxo-7-phenyl-[1,2]thiazepan-2-ylmethyl)-3-fluoro-phenyl]-3-methyl-piperazin-1-yl}-ethanone]
135 | COc1ccccc1C1CC[C@H](C)N(Cc2ccc(N3CCN(C(C)=O)CC3)cc2F)S1(=O)=O (single isomer, unassigned) [Example 223]
11 | CC(=O)N1CCN(c2ccc(CN3C4CCCC4CC(c4ccccc4)S3(=O)=O)c(F)c2)CC1 (single isomer, unassigned) [Example 250, 1-(4-(4-((2,2-dioxido-3-phenylhexahydro-cyclopenta[c][1,2]thiazin-1(3H)-yl)methyl)-3-fluorophenyl)piper-azin-1-yl)ethanone]

IC50 [nM] | SMILES
37 | CS(=O)(=O)N1CCC(Oc2ccc(CN3CCCC(c4ccccc4)S3(=O)=O)c(F)c2)CC1 (single isomer, unassigned) [Example 54, 2-(2-fluoro-4-((1-(methylsulfonyl)piperidin-4-yl)oxy)benzyl)-6-phenyl-1,2-thiazinane 1,1-dioxide]
30 | C[C@H]1CCC(c2ccccc2)S(=O)(=O)N1Cc1ccc(N2CCC(n3cncn3)CC2)cc1F (stereo partly drawn) [Example 215, (3S)-2-[2-Fluoro-4-(4-[1,2,4]triazol-1-yl-piperidin-1-yl)-benzyl]-3-methyl-6-phenyl-[1,2]thiazinane 1,1-dioxide]
1400 | C[C@@H]1CCC(c2ccccc2)S(=O)(=O)N1Cc1ccc(OC2CCN(S(C)(=O)=O)CC2)nc1 (single isomer, unassigned) [Example 51]
118 | CC(=O)N1CCCN(c2ccc(CN3[C@@H](C)CCC(c4ccccc4)S3(=O)=O)c(F)c2)CC1 (single isomer, unassigned) [Example 81]
872 | CCOC(=O)c1ncc2n1CCN(c1ccc(CN3[C@@H](C)CCC(c4ccccc4)S3(=O)=O)c(F)c1)C2 (stereo partly drawn) [Example 397, 7-[3-Fluoro-4-((3S)-methyl-1,1-dioxo-6-phenyl-[1,2]thiazinan-2-ylmethyl)-phenyl]-5,6,7,8-tetrahydro-imidazo[1,5-a]pyrazine-3-carboxylic acid ethyl ester]
38 | C[C@H]1CCC(c2ccccc2)S(=O)(=O)N1Cc1ccc(N2CCC(c3nnco3)CC2)cc1F (stereo partly drawn) [Example 210, (3S)-2-[2-Fluoro-4-(4-[1,3,4]oxadiazol-2-yl-piperidin-1-yl)-benzyl]-3-methyl-6-phenyl-[1,2]thiazinane 1,1-dioxide]
37 | CS(=O)(=O)N1CCC(Oc2ccc(CN3CCCC(c4ccccc4)S3(=O)=O)c(F)c2)CC1 (single isomer, unassigned) [Example 4]
15 | C[C@H]1CN(c2ccc(CN3[C@@H](C)CCC(c4ccccc4)S3(=O)=O)c(F)c2)CCN1C(=O)CC#N (stereo partly drawn) [Example 263, 3-{4-[3-Fluoro-4-((3S)-methyl-1,1-dioxo-6-phenyl-[1,2]thiazinan-2-ylmethyl)-phenyl]-2-methyl-piperazin-1-yl}-3-oxo-propionitrile]
44 | CC(=O)N1CCN(c2ccc(CN3C4CC(C4)CC(c4ccccc4)S3(=O)=O)c(F)c2)CC1 (single isomer, unassigned) [Example 300, 1-{4-[4-(3,3-Dioxo-4-phenyl-3-thia-2-aza-bicyclo[4.1.1]oct-2-ylmethyl)-3-fluoro-phenyl]-piperazin-1-yl}-ethanone]
258 | CN/C(=C\[N+](=O)[O-])N1CCN(c2ccc(CN3[C@@H](C)CCC(c4ccccc4)S3(=O)=O)c(F)c2)CC1 (stereo partly drawn) [Example 126, ((E)-1-{4-[3-Fluoro-4-((3S)-3-methyl-1,1-dioxo-6-phenyl-[1,2]thiazinan-2-ylmethyl)-phenyl]-piperazin-1-yl}-2-nitro-vinyl)-methyl-amine]
126 | CC(=O)N1CCN(c2ccc(CN3[C@@H](C)CCC(c4ccccc4)S3(=O)=O)cc2)CC1 (single isomer, unassigned) [Example 41]
1430 | C[C@H]1CCC(c2ccccc2)S(=O)(=O)N1Cc1ccc(C(=O)N2CCCC(O)CC2)cc1 (stereo partly drawn) [Example 284, (4-Hydroxy-azepan-1-yl)-[4-((3S)-methyl-1,1-dioxo-6-phenyl-[1,2]thiazinan-2-ylmethyl)-phenyl]-methanone]
738 | CC(=O)N1CCN(c2ccc(CN3[C@@H](C)CCC(c4cccc(C#N)c4)S3(=O)=O)c(F)c2)CC1 (single isomer, unassigned) [Example 202]
22 | C[C@H]1CCC(c2ccccc2)S(=O)(=O)N1Cc1ccc(OC2CCN(S(C)(=O)=O)CC2)cc1 (single isomer, unassigned) [Example 45]
18 | CC(=O)N1CCN(c2ccc(CN3[C@@H](C)CCC(c4ccccc4)S3(=O)=O)c(F)c2)C[C@H]1C (stereo partly drawn) [Example 264, 1-{4-[3-Fluoro-4-((3S)-methyl-1,1-dioxo-6-phenyl-[1,2]thiazinan-2-ylmethyl)-phenyl]-2-methyl-piperazin-1-yl}-ethanone]

same assay, conditions: RORc IC50

IC50 [nM] | SMILES
37 | O=S1(=O)[C@@H](c2ccccc2)CCC2(CC2)N1Cc1ccc(N2CCC(n3cnnc3)CC2)cc1F [Example 415, (R)-4-[2-Fluoro-4-(4-[1,2,4]triazol-4-yl-piperidin-1-yl)-benzyl]-6-phenyl-5-thia-4-aza-spiro[2.5]octane 5,5-dioxide]

same assay, conditions: read-out: RORc IC50

IC50 [nM] | SMILES
6500 | C[C@H]1CCC(c2ccccc2)S(=O)(=O)N1Cc1ccc(C(=O)NC2CCC(O)C2)cc1 (single isomer, unassigned) [Example 410]
852 | C[C@H]1CCC(c2ccccc2)S(=O)(=O)N1Cc1ccc(OC2CCC(=O)NC2)cc1 (stereo partly drawn) [Example 449, 5-[4-((3S)-Methyl-1,1-dioxo-6-phenyl-[1,2]thiazinan-2-ylmethyl)-phenoxy]-piperidin-2-one]
12 | CC1CN(S(C)(=O)=O)CCC1Nc1ccc(CN2[C@@H](C)CCC(c3ccccc3)S2(=O)=O)c(F)c1 (stereo partly drawn) [Example 451, [3-Fluoro-4-((3S)-methyl-1,1-dioxo-6-phenyl-[1,2]thiazinan-2-ylmethyl)-phenyl]-(1-methanesulfonyl-3-methyl-piperidin-4-yl)-amine]

Source: patent US9115101B2 (Genentech, Inc., priority 2012, dated 2015)
